Structures are written as SMILES. Like-named read-outs stand apart in the source and are kept apart here. Where only a bound is given, the exact number is not on record here.

Data set [1] is described as follows: Draves Wetting Test (ASTM D2281-68). It is filed as physicochemical. The settings on record: 0.05 wt % (actives basis) in DI water; average of 3 measurements. The procedure: A 0.05 wt % (actives basis) solution of amine oxide in deionized (DI) water was used to determine the Draves wet-out time (WOT) in seconds. 0.75 g of surfactant was dispersed in 1,500 ml of DI water. The wet-out time (WOT) in seconds is recorded in Table 14 (average of 3 measurements). LAO is Lauramine oxide (linear hydrophobe), Sigma catalog number 40236.

Data set [2] in a line: Foam height, high shear (Waring blender). Type of data set: physicochemical. The following applies: for Foam volume (ml) 5 min / Foam volume (ml) Initial: 0.05 wt % in deionized water; for Foam volume (ml) 5 min: after 5 minutes; for Foam volume (ml) Initial: blended on High 30 seconds; for % decrease: foam volume, initial to 5 min. The procedure:
A 0.05 wt % (actives basis) solution of the test surfactant was made in deionized water. 250 ml of the test solution was added the beaker of a Waring blender, capped, and then blended on High for 30 seconds and immediately transferred to a 1 L graduated cylinder. The total volume of foam plus liquid, as well as the liquid layer alone was recorded. The foam and liquid volumes were recorded again after 5 minutes.

The test system of a further data set is zein protein. From the text:
Amine oxides with linear and branched hydrophobes from Examples 65 and 66 were compared in a screen to predict mildness of surfactants. There is a correlation between the ability of a surfactant to denature a protein and the skin irritation potential of that surfactant. The relationship is believed to result from surfactant binding to proteins like keratin, followed by the denaturation of these proteins, leading to skin irritation. A common screening test involves measuring the amount of zein (a corn protein which is insoluble in water) solubilized by a surfactant solution, the Zein Solubilization Test (Moore et al., 2003 and references therein)
For the test, 0.0750 g of zein protein is transferred into a 1.5 mL centrifuge tube. To this 1.5 mL of 1% surfactant solution is added, mixed, and placed in a 30 C incubator with mild stirring for 30 minutes. After 30 minutes has elapsed, the tube is centrifuged for 30 min at 3600 rpm. The solution is filtered through a pre-weighed 8 micron filter paper, and then dried overnight in a 50° C. oven. The insoluble zein residue is then weighed and the wt % Zein dissolved is calculated using the equation below. Each solution is analyzed in triplicate. The Zein score is normalized to a standard included in each set of tests, in this case LAE10.
% zein dissolved=(total zein added−total zein after drying Total zein added)×100

Data set [3] in a line: Foaming of amine oxide added to commercial laundry liquid (Waring blender). Type of data set: physicochemical. Further details: Difference: unit: ml. The following applies: for Difference: initial minus 5 min foam volume. Here is the method: The surface foam volume and foam persistence of solutions of the amine oxides with linear and branched hydrophobes from Examples […] were compared. A commercial laundry liquid was diluted in deionized water according to the dosing instructions; 4.2 ml/L Persil Original. The diluted detergent was supplemented with 0%, 2%, 5% (based on wt laundry liquid) of LAO or Branched C12 AO, (2,4-diethyl-N,N-dimethyloctan-1-amine oxide, Example 66), and the solutions mixed briefly and used immediately. 250 ml of each test solution was added the beaker of a Waring blender, capped, and then blended on High for 30 seconds and immediately transferred to a 1 L graduated cylinder. The total volume of foam plus liquid, as well as the liquid layer alone was recorded. The foam and liquid volumes were recorded again after 5 minutes. All tests were performed in triplicate.

Data set [4] is described as follows: High-shear foaming of N-alkyl-N-methylglucamines in commercial blender. The settings on record: 1 wt % test substance in 10 wt % SDS, diluted to 0.05 wt % surfactant. It is filed as physicochemical. The procedure:
The high-shear foaming behavior of linear and branched N-alkyl-N glucamines was investigated, as this can have an impact on their performance in home care applications. […] The solutions were heated to 80° C., ultrasonicated for 1 h, and cooled to room temperature. Finally, the as-obtained solutions were diluted with MilliQ water to obtain a 0.05 wt % surfactant solution. In agreement with the literature on branched hydrophobes, the high-shear foaming tests performed in the commercial blender indicate that the linear N-decyl-N-methylglucamine (IC10 NMG) solution foams relatively more than its branched counterpart solution. For all solutions, the initial foam volume is between 40 and 53 mL. Lauramine oxide (LAO) appears to be foamier than the N-alkyl-N-methylglucamines.

The nature of data set [5]: Salt thickening, viscosity of SLS/SLES/amine oxide formulation. It is filed as physicochemical. The settings on record: shear rate 3/s. The procedure: Linear amine oxides tend to increase the viscosity of a formulation containing NaCl in a dose-dependent manner. The viscosity (cP; shear rate 3/s) of a simple formulation was measured as the salt concentration varied from 0 to 5 wt %.

Data set [6] can be described thus: Stain removal in cold water, brightness L*. The settings on record: compared to LAO; additive 0.05% active. The procedure: Amine oxides with linear and branched hydrophobes were compared in a screen for stain removal in cold water. Simple laundry liquid formulations were made that included only surfactants and builder.
Standard stain swatches were purchased from Testfabrics, Inc. (West Pittston, Pa.). STC/CFT PC-S-216 is diluted red lipstick on poly/cotton (65/35), and STC/CFT PC-S-132 is high discriminative sebum (synthetic) with pigment on poly/cotton, both made by Center for Testmaterials BV (CFT; The Netherlands). The swatches were pre-cut into 2 inch squares. The test formulation was diluted with DI water to 0.06% total surfactant to make the wash solution. Additives were added at a final concentration of 0.05% active in the wash solution. Stained fabric swatches were added to the wash solution, washed and rinsed at 20° C., and air-dried. The average swatch brightness (L*) for each treatment, and standard deviation, are reported for 3 replicates. […] All treatments are brighter than the untreated stain swatches. The nonionics NPE and LAE7 removed the lipstick and sebum stains to the same brightness.

Where [7] appears, read: Persil Original 4.2 ml/L + 2% additive.
Where [8] appears, read: NaCl 0 wt %, 1.4% amine oxide, 4.3% SLS, 4.3% SLES.

Turning to `CCCCC(CC)CC(CC)C[N+](C)(C)[O-]` (stereo not shown) [Example 66, 2,4-diethyl-N,N-dimethyloctan-1-amine oxide], in data set [1], the Wet out time is above 300 s. Besides, in data set [2], the “Foam volume (ml) 5 min” value stood at 0 mL, the “Foam volume (ml) Initial” value was determined as 370 mL and the “% decrease” value was 100%. Besides, in the data set on zein protein (corn, 30 min, 1 %), the “Zein score - normalized to LAE10” value came out at 0.018. For the same compound, in data set [3] (Persil + 2% additive), the “Foam volume After 5 min” value was 303 mL and the Difference was determined as 257. For the same compound, the Difference in data set [3] (Persil + 5% additive) is on record as 280. The “Initial foam volume” value in data set [3] (setting [7]) was 560 mL.
In the case of `CCCCCCCCCCCC[N+](C)(C)[O-]` [LAO, N,N-dimethyl laurylamine oxide, reference compound], in data set [4], the “Foam volume after 5 seconds stirring at speed 1” value is on record as 53 mL. Further, the “Foam volume after 5 minutes settling” value in data set [4] was determined as 50 mL. The same compound returned a Wet out time in data set [1] of 33 s. Besides, the “Foam volume (ml) 5 min” value in data set [2] stood at 500 mL. Also, in data set [2], the “Foam volume (ml) Initial” value was 523 mL. In addition, the “% decrease” value in data set [2] is on record as 4%. Moreover, the Viscosity is 2 cP in data set [5] (setting [8]); 2 cP in data set [5] (NaCl 0.5 wt %); 11 cP in data set [5] (NaCl 1.0 wt %); 115 cP in data set [5] (NaCl 1.5 wt %); 1,494 cP in data set [5] (NaCl 2.0 wt %); 7,562 cP in data set [5] (NaCl 2.5 wt %). The Viscosity in data set [5] (NaCl 3.0 wt %) was 17,343 cP; in data set [5] (NaCl 3.5 wt %) it was 25,302 cP; in data set [5] (NaCl 4.0 wt %), 27,585 cP; in data set [5] (NaCl 4.5 wt %) it was 24,918 cP; in data set [5] (NaCl 5.0 wt %), 19,368 cP. The “Zein score - normalized to LAE10” value with zein protein (1% surfactant solution, 30 C, 30 minutes) is on record as 4.212. The “Foam volume After 5 min” value came to 473 mL in data set [3] (Persil + 2% additive) and 507 mL in data set [3] (Persil + 5% additive). Moreover, the Difference in data set [3] (Persil + 2% additive) is recorded as 54; in data set [3] (Persil + 5% additive) it was 6. In addition, the “Initial foam volume” value in data set [3] (setting [7]) is 527 mL; in data set [3] (Persil Original 4.2 ml/L + 5% additive), 513 mL.
Compound `CCCCC(CC)CC(C)C[N+](C)(C)[O-]` (stereo not shown) [Example 65, 4-ethyl-N,N-2-trimethyloctan-1-amine oxide] came in with a Wet out time in data set [1] above 300 s. For the same compound, the “Foam volume (ml) 5 min” value in data set [2] was determined as 0 mL. Further, the “Foam volume (ml) Initial” value in data set [2] stood at 267 mL. The “% decrease” value in data set [2] came to 100%. The Viscosity in data set [5] (setting [8]) is 2 cP; in data set [5] (NaCl 0.5 wt %), 7 cP; in data set [5] (NaCl 1.0 wt %), 36 cP; in data set [5] (NaCl 1.5 wt %) it was 257 cP; in data set [5] (NaCl 2.0 wt %), 2,050 cP; in data set [5] (NaCl 2.5 wt %), 3,635 cP. In addition, the Viscosity in data set [5] (NaCl 3.0 wt %) is given as 3,459 cP; in data set [5] (NaCl 3.5 wt %), 2,021 cP; in data set [5] (NaCl 4.0 wt %), 670 cP; in data set [5] (NaCl 4.5 wt %), 288 cP; in data set [5] (NaCl 5.0 wt %), 148 cP. In addition, the “foam in the wash solution” value in data set [6] was “very little foam”.

Values taken from US20190218170A1, “BRANCHED TRIALKYLAMINE PRECURSORS, INTERMEDIATES, PRODUCTS MADE THEREFROM AND PROCESSES OF MANUFACTURE” (priority 2018, published 2019).
